Results reported in paper PMC9386018, “A lymphatic-absorbed multi-targeted kinase inhibitor for myelofibrosis therapy” (Nature Communications, 2022).
Values joined by “and” are separate entries in the source; they are usually repeats but may differ in a detail not shown here. Equal values may be shown once.

Columns and labels:
SET-2 cells = assay: SET-2 proliferation assay (CellTiter-Fluor); type: cell-based, human; details: 72 h
Protocol: Viable cells were counted by CellTiter-Fluor Assay (Promega) according to manufacturer’s protocol, and all fluorescence values were corrected by a no-cell control. […] Caspase activity was measured by Caspase-Glo 3/7 assay (Promega) according to the manufacturer’s protocol, and all luminescence values were corrected by a no-cell control. Dose response proliferation and Caspase activation data was normalized to vehicle treated control cells and analyzed by non-linear regression for determination of IC50 values. Data was generated from n = 3 independent experiments performed in replicate.

[1] = target: Target kinase isoforms (PI3K, mTOR, RAF, MEK) (Homo sapiens, UniProt P48736); assay: Target kinase isoforms 10-point IC50 determination (Supplementary Fig. 7); type: biochemical; details: PI3K gamma
Target kinase isoforms (PI3K, mTOR, RAF, MEK), sequence (P48736 whole entry, canonical isoform): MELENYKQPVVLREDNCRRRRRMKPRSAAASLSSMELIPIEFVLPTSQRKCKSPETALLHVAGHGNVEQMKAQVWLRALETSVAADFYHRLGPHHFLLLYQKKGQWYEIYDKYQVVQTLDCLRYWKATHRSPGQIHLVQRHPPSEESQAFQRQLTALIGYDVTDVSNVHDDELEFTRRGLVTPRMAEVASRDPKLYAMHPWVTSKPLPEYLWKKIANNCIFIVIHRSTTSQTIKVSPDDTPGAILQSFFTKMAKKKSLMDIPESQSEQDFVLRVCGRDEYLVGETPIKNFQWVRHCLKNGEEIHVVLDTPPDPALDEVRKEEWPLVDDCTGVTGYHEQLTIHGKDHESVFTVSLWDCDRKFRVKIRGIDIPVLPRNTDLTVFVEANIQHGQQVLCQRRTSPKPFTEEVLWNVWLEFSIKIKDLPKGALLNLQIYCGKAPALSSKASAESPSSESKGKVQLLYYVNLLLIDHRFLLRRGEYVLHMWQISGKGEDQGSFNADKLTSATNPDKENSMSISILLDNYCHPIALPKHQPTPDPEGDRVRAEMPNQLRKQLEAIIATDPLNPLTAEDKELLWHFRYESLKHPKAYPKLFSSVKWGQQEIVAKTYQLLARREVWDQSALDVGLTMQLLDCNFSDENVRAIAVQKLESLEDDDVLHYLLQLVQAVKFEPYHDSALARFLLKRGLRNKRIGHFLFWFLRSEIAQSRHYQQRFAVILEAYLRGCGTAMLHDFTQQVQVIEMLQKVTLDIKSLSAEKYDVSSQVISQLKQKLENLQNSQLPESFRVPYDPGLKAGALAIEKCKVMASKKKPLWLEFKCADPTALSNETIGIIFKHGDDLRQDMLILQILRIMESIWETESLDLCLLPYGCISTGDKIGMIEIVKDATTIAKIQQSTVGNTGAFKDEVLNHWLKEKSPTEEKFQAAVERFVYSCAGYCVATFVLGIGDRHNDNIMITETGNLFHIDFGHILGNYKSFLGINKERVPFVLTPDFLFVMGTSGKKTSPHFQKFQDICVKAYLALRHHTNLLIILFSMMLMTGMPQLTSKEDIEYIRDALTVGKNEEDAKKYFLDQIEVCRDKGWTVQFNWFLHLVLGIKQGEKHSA
From the text: The average percent kinase inhibition from replicate data was ranked low to high, converted to a compatible identifier format, then input into Coral Human Kinome Visualization software for presentation analysis. […] Scaling of evolutionary distance for PI kinases is only relative and is based on literature analysis[62],[63]. Average percent kinome inhibition values from replicate data are supplied in Source Data file. […] Corrected data was normalized to vehicle treated control values, and dose response percent kinase activity was analyzed by non-linear regression for determination of IC50 values.

PI3Kγ = PI3Kγ (Homo sapiens, UniProt P48736); assay: Target kinase 10-point inhibition assay, PI3Kγ; type: biochemical; details: PI3K gamma, replicates
PI3Kγ, sequence (P48736 whole entry, canonical isoform): as above
Protocol: Quantitation of kinase inhibition was carried out by Life Technologies (Madison, WI) using the SelectScreen profiling platforms Z’-LYTE^TM and Adapta^TM. Single-point broad panel kinome screening was performed at 2.5 µM LP-182 against all kinases within the Z’-LYTE^TM and Adapta^TM assays (321 kinase isoforms, holoenzymes, or mutant variants). The average percent kinase inhibition from replicate data was ranked low to high, converted to a compatible identifier format, then input into Coral Human Kinome Visualization software for presentation analysis. […] Scaling of evolutionary distance for PI kinases is only relative and is based on literature analysis[62],[63]. Average percent kinome inhibition values from replicate data are supplied in Source Data file. […]. Corrected data was normalized to vehicle treated control values, and dose response percent kinase activity was analyzed by non-linear regression for determination of IC50 values.

[2] = Pharmacokinetic analysis of plasma after intravenous and oral dosing; details: for Concentration: Supplementary Figure 6a, individual replicates
Protocol: Samples were centrifuged at 15,000 rpm for 10 min, then blood plasma was collected from the upper layer and frozen at −80 °C until analysis. […] Sample processing, chromatographic separation, MS, and MS/MS parameters used for analysis were determined by the core. […] Standard curves for peak area ratio of compound to internal standard (Astd/AIstd) vs. compound concentration were used to determine sample analyte concentrations through linear regression with a weighting average of 1/X^2. […] All pharmacokinetic parameters were estimated using non-compartmental analysis with Phoenix/WINONLIN, and provided by the core along with calculated sample analyte concentrations. Data was generated from n ≥ 3 individual animals sampled per time point per compound for each method of dosing.

With `O=C(NOCCOCCOCCOCCC(=O)N1CCN(c2cnc3ccc(-c4cnc(Cl)c(NS(=O)(=O)c5ccc(F)cc5)c4)cc3n2)CC1)c1ccc(F)c(F)c1Nc1ccc(I)cc1F` [LP-182, N-(2-(2-(2-(3-(4-(7-(6-chloro-5-((4-fluorophenyl)sulfonamido)pyridin-3-yl)quinoxalin-2-yl)piperazin-1-yl)-3-oxopropoxy)ethoxy)ethoxy)ethoxy)-3,4-difluoro-2-((2-fluoro-4-iodophenyl)amino)benzamide] the “Growth (%)” value (SET-2 cells; 0.15625 µM, replicates (Fig. 2d)) was 82.3145% and 74.8007% and 92.2424% and 95.23%, the “Growth (%)” value (SET-2 cells; 0.3125 µM, replicates (Fig. 2d)) was 82.5275% and 93.6976% and 99.8925% and 94.4152% and 100.311% and 101.419% and the “Growth (%)” value (SET-2 cells; 0.625 µM, replicates (Fig. 2d)) was 75.7591% and 84.1959% and 99.0777% and 114.242% and 99.4809% and 107.316%. The “Growth (%)” value (SET-2 cells; LP-182 0.625 µM, replicates) was 94.49% and 102.748% and 105.532% and 109.611% and 111.9% and 115.3% and 97.84% and 53.1792% and 80% and 77.2254% and 41.1561% and 108.317%, the “Growth (%)” value (SET-2 cells; LP-182 5 µM, replicates) was 88.52% and 52.137% and 67.274% and 67.1508% and 90.41% and 85.13% and 85.23% and 51.3295% and 50.867% (2×) and 75.3757% and 52.71% and the “Growth (%)” value (SET-2 cells; LP-182 10 µM, replicates) was 67.22% and 40.3515% and 41.5713% and 43.4811% and 65.18% and 66.4% and 66.22% and 0% and 7.399% and 24.9711% (2×) and 44.7503%. The “Growth (%)” value (SET-2 cells; LP-182 20 µM, replicates) was 33.48% and 38.226% and 25.5964% and 32.3363% and 26.13% and 25.92% and 25.14% and 0% (4×) and 25.7197%, the “Growth (%)” value (SET-2 cells; LP-182 40 µM, replicates) was 13.5% and 29.145% and 27.7897% and 24.9557% and 14.69% and 13.53% and 12.78% and 0% (4×) and 22.7255% and the IC50 (SET-2 cells; Homo sapiens, read-out: IC50, inhibition of cellular proliferation) was 7.6 ± 0.82 µM. For the same molecule, the activity at 0.123 µM ([1]; concentration 123 nM) was 20%, the activity at […] ([1]; concentration 370 nM) was 6% and the “Kinase Activity (%) PI3K gamma” value ([1]; concentration 1110 nM, 1.11 µM) was 1% and 3% and 4% and 0%. For the same molecule, the “Kinase Activity (%) PI3K gamma” value ([1]; concentration 3330 nM, 3.33 µM) was 0% and 1%, the “Kinase Activity (%) PI3K gamma” value ([1]; concentration 10000 nM, 10 µM) was 4% and 0% and 2% and the “Kinase Activity (%)” value (PI3Kγ; 0.495 nM, 0.000495 µM) was 106% and 101% and 126% and 100% and 96% and 89% and 105% and 98%. The “Kinase Activity (%)” value (PI3Kγ; 1.52 nM, 0.00152 µM) was 108% and 97% and 115% and 123% and 99% (2×) and 105% and 90% and 88% and 93%, the “Kinase Activity (%)” value (PI3Kγ; 4.57 nM, 0.00457 µM) was 89% and 94% (2×) and 106% and 98% and 93% and 87% and 82% and 77% and 92% and the “Kinase Activity (%)” value (PI3Kγ; 41.2 nM, 0.0412 µM) was 50% (2×) and 48% and 43% and 55% and 47% and 37% and 30% and 31% and 32%. The activity at 0.123 µM (PI3Kγ; 123 nM) was 20%, the “Kinase Activity (%)” value (PI3Kγ; 123 nM, 0.123 µM) was 21% (3×) and 25% and 22% and 19% and 16% (2×) and 13% and the activity at […] (PI3Kγ; 370 nM) was 6%. The “Kinase Activity (%)” value (PI3Kγ; 1110 nM, 1.11 µM) was 1% (4×) and 4% and 0% and 2% (2×) and 3% (2×), the “Kinase Activity (%)” value (PI3Kγ; 3330 nM, 3.33 µM) was 0% (9×) and 1% and the “Kinase Activity (%)” value (PI3Kγ; 10000 nM, 10 µM) was 4% and 0% (8×) and 2%. The Concentration ([2]; i.v., Time 0.167 h) was 11100 ng/mL and 8270 ng/mL and 5220 ng/mL, the Concentration ([2]; i.v., Time 0.5 h) was 807 ng/mL and 646 ng/mL and the Concentration ([2]; i.v., Time 1 h) was 451 ng/mL and 857 ng/mL. For the same molecule, the Concentration ([2]; i.v., Time 2 h) was 275 ng/mL and 179 ng/mL, the Concentration ([2]; i.v., Time 4 h) was 141 ng/mL and 75.9 ng/mL and the Concentration ([2]; i.v., Time 7 h) was 51.4 ng/mL and 34.3 ng/mL. For the same molecule, the Concentration ([2]; i.v., Time 16 h) was 30.6 ng/mL and 29.3 ng/mL and 5.58 ng/mL, the Concentration ([2]; i.v., Time 24 h) was 7.68 ng/mL and 8.28 ng/mL and the Concentration ([2]; p.o., Time 0.167 h) was 731 ng/mL and 1660 ng/mL and 900 ng/mL. For the same molecule, the Concentration ([2]; p.o., Time 0.5 h) was 2150 ng/mL and 2630 ng/mL, the Concentration ([2]; p.o., Time 1 h) was 1580 ng/mL and 1950 ng/mL and the Concentration ([2]; p.o., Time 2 h) was 424 ng/mL and 145 ng/mL and 74.1 ng/mL. For the same molecule, the Concentration ([2]; p.o., Time 4 h) was 146 ng/mL and 522 ng/mL and 339 ng/mL, the Concentration ([2]; p.o., Time 7 h) was 331 ng/mL and 97.6 ng/mL and 1560 ng/mL and the Concentration ([2]; p.o., Time 16 h) was 79.2 ng/mL and 205 ng/mL and 265 ng/mL. The Concentration ([2]; p.o., Time 24 h) was 401 ng/mL and 114 ng/mL and 295 ng/mL, the concentration at 0.5 h ([2]; female, CD-1, mouse, plasma, iv, 15 mg kg^−1, Concentration (ng/mL), mice, single i.v. LP-182 15 mg kg^−1, 0.5 h, analyte = label, individual animals) was 1180 ng/mL and the concentration at 1 h ([2]; female, CD-1, mouse, plasma, iv, 15 mg kg^−1, Concentration (ng/mL), mice, single i.v. LP-182 15 mg kg^−1, 1 h, analyte = label, individual animals) was 524 ng/mL. It also gave a concentration at 2 h ([2]; female, CD-1, mouse, plasma, iv, 15 mg kg^−1, Concentration (ng/mL), mice, single i.v. LP-182 15 mg kg^−1, 2 h, analyte = label, individual animals) of 275 ng/mL and a concentration at 4 h ([2]; female, CD-1, mouse, plasma, iv, 15 mg kg^−1, Concentration (ng/mL), mice, single i.v. LP-182 15 mg kg^−1, 4 h, analyte = label, individual animals) of 83.2 ng/mL.
